Assays:
[1] = target: T1, human B1R (Homo sapiens, UniProt P46663); test: Functional investigation on the bradykinin 1 receptor (B1R), cell-based fluorescent calcium-mobilization assay (FLIPR/Novostar), human; conditions: 10 μM test substance; CHO K1 cells stably transfected with human B1R gene; agonist Lys-Des-Arg9-bradykinin at EC80; % inhibition compared with maximum achievable inhibition; read-out: B1R antagonism, human [10 μM] % inhibition
T1 construct: expressed in transfected cells; host or cells: CHO K1 cells
T1 sequence (P46663 1-353): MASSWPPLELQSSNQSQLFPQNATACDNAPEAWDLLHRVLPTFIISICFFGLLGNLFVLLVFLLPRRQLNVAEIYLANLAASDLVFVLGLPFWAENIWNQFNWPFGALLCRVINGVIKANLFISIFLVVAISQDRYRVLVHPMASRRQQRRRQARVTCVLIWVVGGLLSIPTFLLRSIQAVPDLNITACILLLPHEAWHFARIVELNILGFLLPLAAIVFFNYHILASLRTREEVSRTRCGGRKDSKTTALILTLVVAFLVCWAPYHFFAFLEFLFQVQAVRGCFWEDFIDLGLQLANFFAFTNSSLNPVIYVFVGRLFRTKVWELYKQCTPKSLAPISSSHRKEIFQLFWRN
Procedure, shortened: (§1)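 Stably transfected CHO K1 cells loaded with Fluo-4-AM; fluorescence peak read by FLIPR/Novostar (ex 488, em 540 nm). Test compounds at 10 μM give % activation vs Lys-Des-Arg9-BK (human) or Des-Arg9-BK (rat); after 6-20 min, agonist added at EC80 and % inhibition vs maximum achievable inhibition derived.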

[2] = target: T2, B1R of rats (Rattus norvegicus, UniProt P97583); test: Functional investigation on the bradykinin 1 receptor (B1R), cell-based fluorescent calcium-mobilization assay (FLIPR/Novostar), rat; conditions: 10 μM test substance; CHO K1 cells stably transfected with rat B1R gene; agonist Des-Arg9-bradykinin at EC80; % inhibition compared with maximum achievable inhibition; read-out: B1R antagonism, rat [10 μM] % inhibition
T2 construct: expressed in transfected cells; host or cells: CHO K1 cells
T2 sequence (P97583 1-337): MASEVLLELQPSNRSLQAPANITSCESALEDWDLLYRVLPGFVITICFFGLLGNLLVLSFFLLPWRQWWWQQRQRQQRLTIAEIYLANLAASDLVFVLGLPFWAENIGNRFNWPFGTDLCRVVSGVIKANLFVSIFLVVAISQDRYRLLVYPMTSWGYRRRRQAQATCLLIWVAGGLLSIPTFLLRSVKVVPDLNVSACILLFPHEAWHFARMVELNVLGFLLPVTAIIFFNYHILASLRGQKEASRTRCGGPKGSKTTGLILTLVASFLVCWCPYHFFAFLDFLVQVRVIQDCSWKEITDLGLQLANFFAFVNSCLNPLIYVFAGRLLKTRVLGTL
Procedure, shortened: as §1

Row | SMILES | inhibition at 10 µM [1] | inhibition at 10 µM [2]
1 | CC(=O)NCC1(N2CCN(C)CC2)CCN(C(=O)COCC2CCc3ccccc3N2S(=O)(=O)c2ccc(Cl)c(Cl)c2)CC1 (stereo not drawn) [Example 7, N-((1-(2-((1-(3,4-dichlorophenylsulfonyl)-1,2,3,4-tetrahydroquinolin-2-yl)methoxy)acetyl)-4-(4-methylpiperazin-1-yl)piperidin-4-yl)methyl)acetamide] | 102% | 105%
2 | Cc1cccc(Cl)c1S(=O)(=O)N1c2ccccc2OCC1COCC(=O)N1CCC(CNC(=O)c2ccncc2)(N2CCN(C)CC2)CC1 (stereo not drawn) [Example 50, N-((1-(2-((4-(2-Chloro-6-methylphenylsulfonyl)-3,4-dihydro-2H-benzo[b][1,4]oxazin-3-yl)methoxy)acetyl)-4-(4-methylpiperazin-1-yl)piperidin-4-yl)methyl)isonicotinamide] | 96% | 102%
3 | CC(=O)NCC1(N2CCN(C)CC2)CCN(C(=O)CC2CCCCN2S(=O)(=O)c2cccc(C(F)(F)F)c2)CC1 (stereo not drawn) [Example 12, N-((4-(4-methylpiperazin-1-yl)-1-(2-(1-(3-(trifluoromethyl)phenylsulfonyl)-piperidin-2-yl)acetyl)piperidin-4-yl)methyl)acetamide] | 80% | 13%
4 | CN1CCN(C2(CNC(=O)c3ccncc3)CCN(C(=O)CC(NS(=O)(=O)c3ccc4ccccc4c3)c3ccccc3)CC2)CC1 (stereo not drawn) [Example 37, N-((4-(4-methylpiperazin-1-yl)-1-(3-(naphthalene-2-sulfonamido)-3-phenylpropanoyl)piperidin-4-yl)methyl)isonicotinamide] | 46% | 71%
5 | COc1cc(C)c(S(=O)(=O)N2CCCCC2COCC(=O)N2CCC(CNC(C)=O)(N3CCN(c4ccncc4)CC3)CC2)c(C)c1 (stereo not drawn) [Example 22, N-((1-(2-((1-(4-methoxy-2,6-dimethylphenylsulfonyl)piperidin-2-yl)methoxy)acetyl)-4-(4-(pyridin-4-yl)piperazin-1-yl)piperidin-4-yl)methyl)acetamide] | 103% | 101%
6 | O=C(NCC1(N2CCN(C3CC3)CC2)CCN(C(=O)COCCN(C2CC2)S(=O)(=O)c2ccccc2C(F)(F)F)CC1)c1ccncc1 [Example 47, N-((1-(2-(2-(N-Cyclopropyl-2-(trifluoromethyl)phenylsulfonamido)ethoxy)acetyl)-4-(4-cyclopropylpiperazin-1-yl)piperidin-4-yl)methyl)isonicotinamide] | 100% | 99%
7 | CN1CCN(C2(CNC(=O)Cc3ccccc3)CCN(C(=O)COCC3CCc4ccccc4N3S(=O)(=O)c3ccc(Cl)c(Cl)c3)CC2)CC1 (stereo not drawn) [Example 13, N-((1-(2-((1-(3,4-dichlorophenylsulfonyl)-1,2,3,4-tetrahydroquinolin-2-yl)methoxy)acetyl)-4-(4-methylpiperazin-1-yl)piperidin-4-yl)methyl)-2-phenylacetamide] | 104% | 52%

The remaining lines, values ahead:

Row | inhibition at 10 µM [1] | inhibition at 10 µM [2] | SMILES
8 | 103% | 100% | Cc1cc(S(=O)(=O)N2CCCCC2CCC(=O)N2CCC(CNC(=O)c3cccnc3)(N3CCN(C)CC3)CC2)c(C)cc1Cl (stereo not drawn) [Example 33, N-((1-(3-(1-(4-chloro-2,5-dimethylphenylsulfonyl)piperidin-2-yl)propanoyl)-4-(4-methylpiperazin-1-yl)piperidin-4-yl)methyl)nicotinamide]
9 | 103% | 102% | COc1cc(C)c(S(=O)(=O)N2CCCCC2COCC(=O)N2CCC(CNC(C)=O)(N3CCN(C)CC3)CC2)c(C)c1 (stereo not drawn) [Example 27, N-((1-(2-((1-(4-methoxy-2,6-dimethylphenylsulfonyl)piperidin-2-yl)methoxy)acetyl)-4-(4-methylpiperazin-1-yl)piperidin-4-yl)methyl)acetamide]
10 | 99% | 54% | CN1CCN(C2(CNC(=O)c3ccccc3)CCN(C(=O)COCC3CCc4ccccc4N3S(=O)(=O)c3ccc(Cl)c(Cl)c3)CC2)CC1 (stereo not drawn) [Example 23, N-((1-(2-((1-(3,4-dichlorophenylsulfonyl)-1,2,3,4-tetrahydroquinolin-2-yl)methoxy)acetyl)-4-(4-methylpiperazin-1-yl)piperidin-4-yl)methyl)benzamide]
11 | 102% | 75% | CC(=O)NCC1(N2CCN(c3ccncc3)CC2)CCN(C(=O)CCC2CCCCN2S(=O)(=O)c2cc(C)c(Cl)cc2C)CC1 (stereo not drawn) [Example 11, N-((1-(3-(1-(4-chloro-2,5-dimethylphenylsulfonyl)piperidin-2-yl)propanoyl)-4-(4-(pyridin-4-yl)piperazin-1-yl)piperidin-4-yl)methyl)acetamide]
12 | 100% | 102% | COc1cc(C)c(S(=O)(=O)N2c3ccccc3OCC2COCC(=O)N2CCC(CNC(=O)c3ccncc3)(N3CCN(C)CC3)CC2)c(C)c1 (stereo not drawn) [Example 49, N-((1-(2-((4-(4-Methoxy-2,6-dimethylphenylsulfonyl)-3,4-dihydro-2H-benzo[b][1,4]oxazin-3-yl)methoxy)acetyl)-4-(4-methylpiperazin-1-yl)piperidin-4-yl)methyl)isonicotinamide]
13 | 50% | 73% | CN1CCN(C2(CNC(=O)c3cccnc3)CCN(C(=O)CC(NS(=O)(=O)c3ccc4ccccc4c3)c3ccccc3)CC2)CC1 (stereo not drawn) [Example 38, N-((4-(4-methylpiperazin-1-yl)-1-(3-(naphthalene-2-sulfonamido)-3-phenylpropanoyl)piperidin-4-yl)methyl)nicotinamide]
14 | 100% | 102% | COc1cc(C)c(S(=O)(=O)N2c3ccccc3C[C@H]2COCC(=O)N2CCC(CNC(=O)c3ccncc3)(N3CCN(C4CC4)CC3)CC2)c(C)c1 [Example 45, (S)—N-((4-(4-Cyclopropylpiperazin-1-yl)-1-(2-((1-(4-methoxy-2,6-dimethylphenylsulfonyl)indolin-2-yl)methoxy)acetyl)piperidin-4-yl)methyl)isonicotinamide]
15 | 100% | 103% | Cc1cccc(Cl)c1S(=O)(=O)N(CCOCC(=O)N1CCC(CNC(=O)c2ccncc2)(N2CCN(C3CC3)CC2)CC1)C1CC1 [Example 43, N-((1-(2-(2-(2-Chloro-N-cyclopropyl-6-methylphenylsulfonamido)ethoxy)-acetyl)-4-(4-cyclopropylpiperazin-1-yl)piperidin-4-yl)methyl)-isonicotinamide]

From patent US8541573B2, “Substituted sulfonamide compounds” (Gruenenthal GmbH, priority 2008, dated 2013)
